Consider seven compounds from ChEMBL document CHEMBL1201862, “PubChem BioAssay data set” (2004).

Each structure is given as a SMILES string.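 Assay format: 96-well plates, 48-hour exposure. GI50 is the concentration that inhibits growth by half.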 Active and inactive are the calls of the source. Rule as the data show it: active = GI50 up to about 1.1 µM and inactive = higher. Some results are limits rather than exact numbers.

Test systems include RXF 393; HCT-15; NCI-H460; CAKI-1; SF-295; RPMI-8226; OVCAR-4; CCRF-CEM; Malme-3M; NCI/ADR-RES; OVCAR-3; BT-549; HOP-62; SNB-75; MOLT-4; TK-10; A549; SF-539; HCT-116; EKVX.
Holding throughout (experiment): growth of human tumour cells (NCI), 48 h

For the compound `CC(C)CCCC(C)[C@H]1CC[C@H]2N/C(=N/Cc3ccccc3)CCC[C@]12C` (some centres not stated), the GI50 in the test on RXF 393 is 1.53 µM (inactive); in the test with HCT-15 it was 1.67 µM; in the test on NCI-H460, 1.66 µM (inactive); in the test on CAKI-1, 2.25 µM (inactive); with SF-295, 2.03 µM (inactive); in the test with RPMI-8226, 1.59 µM (inactive). For the same compound, the GI50 in the test on OVCAR-4 was 1.98 µM (inactive); with CCRF-CEM it was 2.13 µM (inactive); in the test on Malme-3M, 1.97 µM (inactive); in the test on NCI/ADR-RES, 1.65 µM (inactive); in the test on OVCAR-3, 2.07 µM (inactive); in the test with BT-549, 2.72 µM (inactive). Further, the GI50 in the test on HOP-62 was 2.46 µM (inactive); in the test on SNB-75, 1.83 µM (inactive); with MOLT-4, 1.88 µM (inactive); in the test with TK-10, 2.08 µM (inactive); with A549, 1.83 µM (inactive); in the test with SF-539 it was 1.83 µM (inactive). Also, the GI50 with HCT-116 is 2.6 µM (inactive).

For `Cc1cccc2c(N)c3cccc(C(=O)NCC[N+](C)(C)Cc4ccc([N+](=O)[O-])n4C)c3nc12`, the GI50 with EKVX is 27.6 µM (inactive); in the test with RXF 393 it was 22.4 µM (inactive); with HCT-15, 27.9 µM; in the test on NCI-H460 it was 8.97 µM (inactive); in the test on CAKI-1 it was 7.1 µM (inactive); in the test with SF-295, 17.6 µM (inactive). Further, the GI50 was 12.1 µM (inactive) in the test with RPMI-8226; 46.8 µM (inactive) in the test with OVCAR-4; 3.7 µM (inactive) with CCRF-CEM; 15.2 µM (inactive) in the test with Malme-3M; 55.3 µM (inactive) in the test with NCI/ADR-RES; 24.7 µM (inactive) in the test with OVCAR-3. The GI50 was > 42.6 µM (inactive) in the test with BT-549; 5.25 µM (inactive) with HOP-62; 6.32 µM (inactive) with SNB-75; 1.66 µM (inactive) with MOLT-4; 47.9 µM (inactive) in the test with TK-10; 1.92 µM (inactive) in the test on A549. Besides, the GI50 in the test on SF-539 was 13.5 µM (inactive); in the test with HCT-116, 14.6 µM (inactive).

For `CC(C)c1ccc(C2NC(S)=NC3=C2c2ccccc2C3=O)cc1` (configuration not stated), the GI50 in the test on EKVX was 33.4 µM (inactive); in the test on RXF 393, 10.3 µM (inactive); with HCT-15, 20.6 µM; in the test with NCI-H460, 29.2 µM (inactive); in the test with CAKI-1 it was 22.8 µM (inactive); in the test on SF-295, 20.5 µM (inactive). Besides, the GI50 in the test on RPMI-8226 is 23.2 µM (inactive); in the test with OVCAR-4, 21.6 µM (inactive); in the test with CCRF-CEM, 26.5 µM (inactive); in the test on Malme-3M, 26.2 µM (inactive); in the test on NCI/ADR-RES, 15.1 µM (inactive); in the test on OVCAR-3 it was 26.2 µM (inactive). In addition, the GI50 is 17.1 µM (inactive) in the test on BT-549; 25.8 µM (inactive) in the test with HOP-62; 15.7 µM (inactive) with SNB-75; 24.4 µM (inactive) in the test on MOLT-4; 34 µM (inactive) with TK-10; 28.6 µM (inactive) in the test on A549. Also, the GI50 in the test on SF-539 is 18.7 µM (inactive); with HCT-116 it was 23.6 µM (inactive).

Take `COc1ccc(N2C(=O)CSC2c2cc3cc(Br)ccc3nc2Cl)cc1` (configuration not stated): the GI50 in the test on EKVX is > 50 µM (inactive); in the test on RXF 393, > 50 µM (inactive); with HCT-15, 31.5 µM; in the test with NCI-H460 it was 22.1 µM (inactive); with CAKI-1, 27.5 µM (inactive); in the test with SF-295, 19.9 µM (inactive). In addition, the GI50 was 41.8 µM (inactive) in the test on RPMI-8226; > 50 µM (inactive) in the test with OVCAR-4; 31.6 µM (inactive) with CCRF-CEM; > 50 µM (inactive) with Malme-3M; 44.1 µM (inactive) in the test with NCI/ADR-RES; > 50 µM (inactive) in the test with OVCAR-3. Further, the GI50 in the test on BT-549 is > 50 µM (inactive); with HOP-62, > 50 µM (inactive); in the test with SNB-75, > 50 µM (inactive); in the test with MOLT-4, 21 µM (inactive); in the test on TK-10, > 50 µM (inactive); with A549, 48.6 µM (inactive). Also, the GI50 with SF-539 and in the test with HCT-116 was > 50 µM (inactive) throughout.

`NS(=O)(=O)c1ccc(NC(=S)NC(=O)Nc2ccc(Cl)c(Cl)c2)cc1`: the GI50 in the test with EKVX was 23.7 µM (inactive); in the test with RXF 393, 15.3 µM (inactive); in the test with HCT-15, 11.4 µM; in the test on NCI-H460, 13 µM (inactive); in the test on CAKI-1 it was 18.7 µM (inactive); in the test on SF-295, 13.4 µM (inactive). The GI50 with RPMI-8226 is 19.6 µM (inactive); in the test on OVCAR-4, 14.9 µM (inactive); in the test on CCRF-CEM it was 16.5 µM (inactive); in the test with Malme-3M, 15.2 µM (inactive); in the test with NCI/ADR-RES, 16 µM (inactive); with OVCAR-3, 18.5 µM (inactive). Besides, the GI50 is 15.4 µM (inactive) in the test on BT-549; 17.4 µM (inactive) with HOP-62; 13.7 µM (inactive) with SNB-75; 7.6 µM (inactive) in the test on MOLT-4; 25.1 µM (inactive) in the test on TK-10; 14.4 µM (inactive) in the test with A549. Further, the GI50 in the test with SF-539 is 18.2 µM (inactive); with HCT-116 it was 13.4 µM (inactive).

For `C=C(Cl)C(C)(Cl)CCC(Br)C(C)(C)Cl` (configuration not stated), the GI50 in the test with EKVX was 47.2 µM (inactive); in the test on RXF 393, 13.9 µM (inactive); in the test on NCI-H460, 26 µM (inactive); with CAKI-1 it was 25.4 µM (inactive); in the test on SF-295, 29.1 µM (inactive); in the test on RPMI-8226, 13.2 µM (inactive). Also, the GI50 in the test with OVCAR-4 was 16.2 µM (inactive); in the test on CCRF-CEM, 19.4 µM (inactive); in the test on Malme-3M it was 17.1 µM (inactive); in the test with NCI/ADR-RES, 29.4 µM (inactive); in the test with OVCAR-3 it was 18.2 µM (inactive); with BT-549, 20.6 µM (inactive). Further, the GI50 was 22 µM (inactive) in the test on HOP-62; 12.3 µM (inactive) in the test with SNB-75; 28.4 µM (inactive) with MOLT-4; > 100 µM (inactive) with TK-10; 29.9 µM (inactive) with A549; 27.8 µM (inactive) in the test with SF-539. Also, the GI50 in the test on HCT-116 is 15.2 µM (inactive).

As for `Cn1c(=O)c2sc3c4sc5c(=O)n(C)c6ccccc6c5c4sc3c2c2ccccc21`, the GI50 is > 100 µM (inactive) in the test with EKVX; 12.6 µM (inactive) with RXF 393; > 100 µM in the test on HCT-15; > 100 µM (inactive) with NCI-H460; > 100 µM (inactive) in the test on CAKI-1; > 100 µM (inactive) with RPMI-8226. Besides, the GI50 was 98.9 µM (inactive) with OVCAR-4; > 100 µM (inactive) in the test with CCRF-CEM; > 100 µM (inactive) in the test with Malme-3M; > 100 µM (inactive) in the test with NCI/ADR-RES; > 100 µM (inactive) in the test with OVCAR-3; > 100 µM (inactive) with BT-549. Besides, the GI50 with HOP-62 is 46.5 µM (inactive); with SNB-75 it was 42.6 µM (inactive); in the test on MOLT-4, > 100 µM (inactive); in the test with TK-10, > 100 µM (inactive); in the test on A549, > 100 µM (inactive); with SF-539 it was > 100 µM (inactive). For the same compound, the GI50 in the test with HCT-116 was > 100 µM (inactive).
